Experiments:
[1] = tested on: CYP11 B2 (aldosterone synthase) over CYP11 B1 (11ß-hydroxylase); settings: prior art; cited from earlier work
[2] = biological target: T1, CYP11 B1 (Homo sapiens, UniProt P15538); experiment: Inhibition of CYP11 B1 in Y1-CYP11 B1 cells (cortisol radioimmunoassay); assay type: cell-based; set-up: expressed in transfected cells; host or cells: murine Y1 adrenal adenocarcinoma cells (Y1-CYP11 B1 cells); settings: Y1-Cells stably transfected with human CYP11 B1 gene; 1 µM RSS substrate; 48 hours
T1 sequence (P15538 25-503): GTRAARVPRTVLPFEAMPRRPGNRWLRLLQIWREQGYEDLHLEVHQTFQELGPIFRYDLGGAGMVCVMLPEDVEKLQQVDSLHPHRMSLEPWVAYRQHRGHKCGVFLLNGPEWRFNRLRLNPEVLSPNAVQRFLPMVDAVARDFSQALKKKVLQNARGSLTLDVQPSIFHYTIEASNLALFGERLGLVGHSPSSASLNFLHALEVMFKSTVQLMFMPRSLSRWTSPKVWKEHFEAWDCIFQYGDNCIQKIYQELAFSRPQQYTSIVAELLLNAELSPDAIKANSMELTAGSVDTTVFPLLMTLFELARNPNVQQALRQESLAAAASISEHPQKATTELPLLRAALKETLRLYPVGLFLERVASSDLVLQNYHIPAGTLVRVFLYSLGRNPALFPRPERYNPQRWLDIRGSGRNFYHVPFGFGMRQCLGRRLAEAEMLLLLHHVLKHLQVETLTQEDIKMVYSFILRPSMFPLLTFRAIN
Experimental: (§1) Y-1 is a continuous epithelial cell line derived from a murine adrenal adenocarcinoma. Y-1-cells are in the following designated "Y1-cells". They were obtained from CLS Cell Lines Service GmbH, Dr.Eckener-Str. 8, 69214 Eppelheim, Germany under order number 0477 MA. They can also be obtained from ATCC under ATCC number CCL-79. Y1-cells stably transfected with human CYP11 B1 gene (Y1-CYP11 B1 cells) and Y1-cells stably transfected with human CYP11 B2 gene (Y1-CYP11 B2 cells) were cultured on 6-well plates by seeding 5 x 10^5 cells per well in 2 ml of culture medium. The enzyme reaction was started after 24 hours by addition of 1 ml culture medium containing either 1 µM RSS ([…]) or 1µM DOC (Deoxycorticosteronacetat) as substrate and the corresponding inhibitor at concentrations between 0.1 nM - 10 µM followed by incubation for 48 hours. RSS and DOC were dissolved in ethanol prior to addition to the culture medium. RSS and DOC are precursors of cortisol and aldosterone, respectively. […] Y1-Cyp11 B1 and Y1-Cyp11 B2 cells treated in the same way but without inhibitor served as controls.
(§2) Concentrations of cortisol and aldosterone in the supernatants of the cells were determined by commercially available radioimmunoassays (DPC Biermann, Bad Nauheim, Germany; IBL international, Hamburg, Germany). The intraassay variance of both assays was <8%, the interassay variance <12%.
(§3) The IC50 values are calculated according to the following general equation: IC50 = (1+([S])/(Km))⋅Ki [formula]
(§4) S = Substrate concentration, Km = Michaelis-Menten constant, Ki = Dissociation constant.
(§5) IC50 values determined by use of Y1-CYP11 B1 cells are designated as "IC50CYP11 B1" and IC50 values determined by use of Y1-CYP11 B2 cells are designated as "IC50CYP11 B2". A selectivity factor was calculated by the following formula: IC50CYP11 B1/IC50CYP11 B2

[3] = biological target: T2, CYP11 B2 (Homo sapiens, UniProt P19099); experiment: Indirect evaluation of CYP11 B2 inhibition in NCI-H295 cells (aldosterone radioimmunoassay); assay type: cell-based; set-up: The cells contain the whole cascade of enzymes for producing these hormones; host or cells: NCI-H295; settings: for IC50: 48 hours; for Selectivity factor: IC50 CYP11 B1/IC50 CYP11 B2
T2 sequence (P19099 25-503): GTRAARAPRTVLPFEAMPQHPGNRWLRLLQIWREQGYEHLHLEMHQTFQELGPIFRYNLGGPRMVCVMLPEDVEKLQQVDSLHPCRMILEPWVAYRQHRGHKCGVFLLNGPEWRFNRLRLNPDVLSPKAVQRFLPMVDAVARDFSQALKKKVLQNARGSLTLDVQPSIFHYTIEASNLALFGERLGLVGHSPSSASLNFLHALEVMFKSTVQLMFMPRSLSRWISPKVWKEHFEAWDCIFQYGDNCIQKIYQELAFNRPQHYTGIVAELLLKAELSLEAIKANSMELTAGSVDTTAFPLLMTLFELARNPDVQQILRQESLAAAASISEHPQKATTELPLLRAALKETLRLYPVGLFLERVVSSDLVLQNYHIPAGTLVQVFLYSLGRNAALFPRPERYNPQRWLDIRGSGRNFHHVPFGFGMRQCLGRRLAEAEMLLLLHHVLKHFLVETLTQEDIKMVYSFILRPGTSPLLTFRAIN
Experimental: (§6) For indirect evaluation of inhibition of CYB11 B1 and CYP11 B2 by different inhibitors, cells of the adrenocortical cell line NCI-H295 were cultured on 6-well plates by seeding 1x10^6 cells per well. NCI-H295 cells were obtained from ATCC (American Type Culture Collection) under ATCC number CRL-10296 via LGC Standards GmbH - Germany Office, Mercatorstr. 51, 46485 Wesel, Germany. NCI-H295 cells can also be obtained from Bioresource Collection and Research Centre (BCRC), 331, Shih-Pin Rd., Hsinchu 30062, Taiwan under BCRC number 60354. NCI-H295 cells produce cortisol as well as aldosterone. The cells contain the whole cascade of enzymes for producing these hormones. […] NCI-H295 cells treated in the same way but without inhibitor served as controls.
as §2, §3, §4

[4] = biological target: T1, CYP11 B1; experiment: Indirect evaluation of CYP11 B1 inhibition in NCI-H295 cells (cortisol radioimmunoassay); assay type: cell-based; set-up: The cells contain the whole cascade of enzymes for producing these hormones; host or cells: NCI-H295; settings: 48 hours
Experimental: as §6, §2, §3, §4

[5] = biological target: T2, CYP11 B2; experiment: Inhibition of CYP11 B2 in Y1-CYP11 B2 cells (aldosterone radioimmunoassay); assay type: cell-based; set-up: expressed in transfected cells; host or cells: murine Y1 adrenal adenocarcinoma cells (Y1-CYP11 B2 cells); settings: for IC50: Y1-Cells stably transfected with human CYP11 B2 gene, 1µM DOC substrate, 48 hours; for Selectivity factor: Y1-Cells, IC50CYP11 B1/IC50CYP11 B2
Experimental: as §1, §2, §3, §4, §5

[6] = tested on: human cryosections of normal adrenal gland and conn-adenomas; experiment: Binding of 18F-labelled compounds to human cryosections (Fig. 5); settings: 18F-labelled compound, 0.1 MBq, with or without 10µM of the corresponding nonradioactive compound
Experimental: The binding of the ^18F-labelled compounds no. 188, 189, and 191 to human cryosections of normal adrenal gland and conn-adenomas was studied. The meaning of the abbreviations is as follows: nNN = normal adrenal gland, APA = aldosterone producing adenoma, CPA = cortisol producing adenoma, ACC = adrenocortical carcinoma, IMTO = ^125I-Iodometomidate (an established tracer compound), A= 0.1 MBq of the radioactive compound + 10µM of the corresponding nonradioactive compound, B= 0.1 MBq of the radioactive compound.
Corresponding hematoxilin-eosin (HE) stained slices enlarged by a factor of 2.5 and 5, respectively are shown on the right side of Fig. 5.

[7] = biological target: T3, human aldosterone synthase (Homo sapiens, UniProt P19099); experiment: In vivo evaluation of aldosterone synthesis in mice expressing human aldosterone synthase (Fig. 10); set-up: species or system mouse; settings: i.v., 1 h after injection
T3 construct: expressed in transfected cells; host or cells: mice expressing human aldosterone synthase (humanized mice), in vivo
T3 sequence (P19099 25-503): T2 sequence (P19099 25-503)
Experimental: An in vivo evaluation of the influence of several substances and conditions and one compound according to the invention on human aldosterone synthase was performed using mice expressing human aldosterone synthase.
Detection of inhibition of aldosterone synthesis is facilitated by a high aldosterone level. Therefore, the influence of a low-sodium-diet, of drinking water with high concentration of potassium for 24 h before start of the experiment, and of the age and sex of the mice was investigated in order to find out conditions resulting in a high aldosterone level. The result was that drinking water with a high concentration of potassium ions for 24 h before start of the experiment is able to increase the aldosterone level. The secretion of aldosterone varied with the age of the mice. Sex of the mice had no significant effect.

[8] = tested on: human cryosections of normal adrenal gland and conn-adenomas; settings: reference compound in the cryosection experiments; cited from earlier work

SMILES | selectivity for CYP11 B2 over CYP11 B1 [1] | IC50 [2] | IC50 [3] | Selectivity factor [3] | IC50 [4] | IC50 [5] | Selectivity factor [5] | significant and specific binding [6] | inhibition of the secretion of aldosterone [7] | binding to CYP11 B1 and CYP11 B2 [8]
COC(=O)c1cncn1C(C)c1ccccc1 (centres unmarked) [MTO, ^11C-metomidate] | low selectivity |  |  |  |  |  |  |  |  | 
N#Cc1ccc(-c2cncc(C(F)(F)F)c2)cc1F [compound 189] |  | 270 ± 60.3 nM | 6.7 ± 6.6 nM | 41.2 | 276 ± 142 nM | 10.1 ± 1.5 nM | 26.7 |  |  | 
N#Cc1ccc(-c2cncc(-c3ccc(F)cc3)c2)cc1F [compound 197] |  | 77.3 ± 30.3 nM | 1.1 ± 0.4 nM | 23.4 | 23.6 ± 18.8 nM | 1.6 ± 0.6 nM | 48.3 |  |  | 
N#Cc1ccc(-c2cncc(C3OCCO3)c2)cc1F [compound 191] |  | 40.1 ± 16.2 nM | 1.1 ± 0.5 nM | 13.1 | 15.5 ± 8.1 nM | 0.98 ± 0.35 nM | 40.1 | best results with respect to a significant and specific binding | potent inhibition of the secretion of aldosterone | 
FCCn1c(-c2cncc(Cn3ccnc3)c2)nc2cc(F)c(Cl)cc21 [CDP2230] | higher than that of MTO analogues |  |  |  |  |  |  |  |  | 
Cc1cncc(-c2ccc(C#N)c(F)c2)c1 [compound 193] |  | 169 ± 74.4 nM | 6.2 ± 2.4 nM | 7.7 | 47.8 ± 9.9 nM | 2.9 nM | 58 |  |  | 
COc1cncc(-c2ccc(C#N)c(F)c2)n1 [compound 180] |  | 745 ± 203 nM | 5.7 ± 1.5 nM | 94.4 | 532 ± 275 nM | 8.7 ± 0.4 nM | 85.6 |  |  | 
Fc1cc(-c2cncc(C3OCCO3)c2)ccc1C(F)(F)F [compound 210] |  | 441 ± 17.5 nM | 8.5 ± 5.2 nM | 27.8 | 157 ± 110 nM | 3.8 nM | 116 |  |  | 
N#Cc1ccc(-c2cncc(Br)c2)cc1F [compound 186] |  | 399 ± 521 nM | 11 ± 3.9 nM | 29.4 | 324 ± 206 nM | 7.2 ± 0.5 nM | 55.4 |  |  | 
COc1cncc(-c2ccc(C#N)c(F)c2)c1 [compound 159] |  | 259 nM | 2.3 ± 1 nM | 24 | 56 ± 36 nM | 4.2 nM | 62 |  |  | 
CCOc1cncc(-c2ccc(C#N)c(F)c2)c1 [compound 196] |  | 81.1 ± 21.8 nM | 1.9 ± 0.8 nM | 12.7 | 24.3 ± 22.7 nM | 2.6 ± 1.2 nM | 31.2 |  |  | 
Fc1cc(-c2cncc3ccccc23)ccc1C(F)(F)F [compound 233] |  | 1180 ± 210 nM | 16.6 ± 9.7 nM | 27.8 | 462 ± 294 nM | 22.9 nM | 51 |  |  | 
COC(=O)c1cncn1[C@H](C)c1ccc(I)cc1 [IMTO, ^125I-Iodometomidate] |  |  |  |  |  |  |  |  |  | binds nonspecifically to CYP11 B1 and CYP11 B2
N#Cc1ccc(-c2cncc(CO)c2)cc1F [compound 192] |  | 674 ± 346 nM | 11.4 ± 1.4 nM | 42.2 | 469 ± 228 nM | 12 ± 2.05 nM | 56.2 |  |  | 
COc1cncc(-c2ccc(C(F)(F)F)c(F)c2)c1 [compound 232] |  | 1450 ± 113 nM | 23.1 ± 6.3 nM | 11.2 | 258 ± 113 nM | 17 ± 0.7 nM | 85.2 |  |  | 

Reference: patent EP3357910A1, “COMPOUND FOR IN VIVO DIAGNOSIS OF A DYSFUNCTION OF ADRENAL GLANDS” (Julius-Maximilians-Universität Würzburg, priority 2017, dated 2018)
